Laboratory results as given in patent US8163724B2, “Glucocorticosteroids, processes for their preparation, pharmaceutical compositions containing them and their use in therapy” (AstraZeneca AB, priority 2007, dated 2012).

Each molecule was assayed against T1, recombinant human GR (Homo sapiens, UniProt P04150) (assay: Human Glucocorticoid Receptor (GR) Assay (fluorescence polarization, Panvera/Invitrogen kit)). Conditions: fluorescence polarization; GS Red tracer; 2 hours at room temperature; 100% control 10 μM Dexamethasone; read-out: Inhibition of GR binding, IC50.
T1 construct: purchased Panvera/Invitrogen P2812 (kit P2893)
T1 sequence (P04150 1-777): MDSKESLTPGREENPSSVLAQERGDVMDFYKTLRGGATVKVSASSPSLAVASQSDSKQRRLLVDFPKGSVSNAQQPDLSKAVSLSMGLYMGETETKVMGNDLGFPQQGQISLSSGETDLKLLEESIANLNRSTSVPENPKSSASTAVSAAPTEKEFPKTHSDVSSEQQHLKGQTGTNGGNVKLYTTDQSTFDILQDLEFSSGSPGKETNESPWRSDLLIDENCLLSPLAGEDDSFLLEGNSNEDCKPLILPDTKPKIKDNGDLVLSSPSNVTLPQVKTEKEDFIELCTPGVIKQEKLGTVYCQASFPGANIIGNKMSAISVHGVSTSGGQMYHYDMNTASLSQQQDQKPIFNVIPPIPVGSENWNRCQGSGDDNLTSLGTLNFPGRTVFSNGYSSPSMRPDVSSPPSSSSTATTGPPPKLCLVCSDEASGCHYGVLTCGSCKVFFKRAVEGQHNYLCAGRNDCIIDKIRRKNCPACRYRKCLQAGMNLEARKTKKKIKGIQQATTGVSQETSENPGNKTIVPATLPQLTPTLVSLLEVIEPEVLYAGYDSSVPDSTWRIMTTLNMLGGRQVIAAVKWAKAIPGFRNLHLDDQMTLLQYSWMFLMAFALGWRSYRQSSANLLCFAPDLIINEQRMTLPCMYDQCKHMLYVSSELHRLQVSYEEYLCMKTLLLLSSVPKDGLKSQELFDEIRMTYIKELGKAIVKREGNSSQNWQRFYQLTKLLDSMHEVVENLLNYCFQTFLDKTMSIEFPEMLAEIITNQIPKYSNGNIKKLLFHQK
Format: binding
Outline: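 Fluorescence polarization competition with recombinant GR and GS Red fluorescent ligand plus stabilizing peptide and DTT in potassium phosphate/sodium molybdate/EDTA buffer with DMSO. Incubated 2 hours at room temperature in the dark; 0% control DMSO, 100% control 10 μM dexamethasone.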

SMILES | IC50 [nM]
COCSC(=O)[C@@]1(OC(=O)C2CC2)CC[C@H]2[C@@H]3CCC4=Cc5c(cnn5-c5ccc(F)nc5)C[C@]4(C)[C@H]3[C@@H](O)C[C@@]21C [Example 154, (1R,3aS,3bS,10aR,10bS,11S,12aS)-7-(6-Fluoropyridin-3-yl)-11-hydroxy-1-{[(methoxymethyl)sulfanyl]carbonyl}-10a,12a-dimethyl-1,2,3,3a,3b,4,5,7,10,10a,10b,11,12,12a-tetradecahydrocyclopenta[5,6]naphtho[1,2-f]indazol-1-yl cyclopropanecarboxylate] | 5.9
C[C@]12Cc3cnn(-c4ccc(F)nc4)c3C=C1CC[C@@H]1[C@@H]2[C@@H](O)C[C@@]2(C)[C@H]1CC[C@]2(OC(=O)C1CC1)C(=O)SCCO [Example 155, (1R,3aS,3bS,10aR,10bS,11S,12aS)-7-(6-Fluoropyridin-3-yl)-11-hydroxy-1-{[(2-hydroxyethyl)sulfanyl]carbonyl}-10a,12a-dimethyl-1,2,3,3a,3b,4,5,7,10,10a,10b,11,12,12a-tetradecahydrocyclopenta[5,6]naphtho[1,2-f]indazol-1-yl cyclopropanecarboxylate] | 1.9
COCC(=O)O[C@]1(C(=O)SCC#N)CC[C@H]2[C@@H]3CCC4=Cc5c(cnn5-c5ccc(F)nc5)C[C@]4(C)[C@H]3[C@@H](O)C[C@@]21C [Example 156, (1R,3aS,3bS,10aR,10bS,11S,12aS)-1-{[(Cyanomethyl)sulfanyl]carbonyl}-7-(6-fluoropyridin-3-yl)-11-hydroxy-10a,12a-dimethyl-1,2,3,3a,3b,4,5,7,10,10a,10b,11,12,12a-tetradecahydrocyclopenta[5,6]naphtho[1,2-f]indazol-1-yl methoxyacetate] | 1.3
COCC(=O)O[C@]1(C(=O)SC)CC[C@H]2[C@@H]3CCC4=Cc5c(cnn5-c5ccc(F)nc5)C[C@]4(C)[C@H]3[C@@H](O)C[C@@]21C [Example 157, (1R,3aS,3bS,10aR,10bS,11S,12aS)-7-(6-Fluoropyridin-3-yl)-11-hydroxy-10a,12a-dimethyl-1-[(methylsulfanyl)carbonyl]-1,2,3,3a,3b,4,5,7,10,10a,10b,11,12,12a-tetradecahydrocyclopenta[5,6]naphtho[1,2-f]indazol-1-yl Methoxyacetate] | 1.1
COCSC(=O)[C@@]1(OC(=O)COC)CC[C@H]2[C@@H]3CCC4=Cc5c(cnn5-c5ccc(F)nc5)C[C@]4(C)[C@H]3[C@@H](O)C[C@@]21C [Example 158, (1R,3aS,3bS,10aR,10bS,11S,12aS)-7-(6-Fluoropyridin-3-yl)-11-hydroxy-1-{[(methoxymethyl)sulfanyl]carbonyl}-10a,12a-dimethyl-1,2,3,3a,3b,4,5,7,10,10a,10b,11,12,12a-tetradecahydrocyclopenta[5,6]naphtho[1,2-f]indazol-1-yl methoxyacetate] | 2.4
COCC(=O)O[C@]1(C(=O)SCCO)CC[C@H]2[C@@H]3CCC4=Cc5c(cnn5-c5ccc(F)nc5)C[C@]4(C)[C@H]3[C@@H](O)C[C@@]21C [Example 159, (1R,3aS,3bS,10aR,10bS,11S,12aS)-7-(6-Fluoropyridin-3-yl)-11-hydroxy-1-{[(2-hydroxyethyl)sulfanyl]carbonyl}-10a,12a-dimethyl-1,2,3,3a,3b,4,5,7,10,10b,11,12,12a-tetradecahydrocyclopenta[5,6]naphtho[1,2-f]indazol-1-yl methoxyacetate] | 3.6
C[C@]12Cc3cnn(-c4ccc(F)nc4)c3C=C1CC[C@@H]1[C@@H]2[C@@H](O)C[C@@]2(C)[C@H]1CC[C@]2(OC(=O)c1cocn1)C(=O)SCC#N [Example 160, (1R,3aS,3bS,10aR,10bS,11S,12aS)-1-{[(Cyanomethyl)sulfanyl]carbonyl}-7-(6-fluoropyridin-3-yl)-11-hydroxy-10a,12a-dimethyl-1,2,3,3a,3b,4,5,7,10,10a,10b,11,12,12a-tetradecahydrocyclopenta[5,6]naphtho[1,2-f]indazol-1-yl 1,3-oxazole-4-carboxylate] | 2.1
CSC(=O)[C@@]1(OC(=O)c2cocn2)CC[C@H]2[C@@H]3CCC4=Cc5c(cnn5-c5ccc(F)nc5)C[C@]4(C)[C@H]3[C@@H](O)C[C@@]21C [Example 161, (1R,3aS,3bS,10aR,10bS,11S,12aS)-7-(6-Fluoropyridin-3-yl)-11-hydroxy-10a,12a-dimethyl-1-[(methylsulfanyl)carbonyl]-1,2,3,3a,3b,4,5,7,10,10a,10b,11,12,12a-tetradecahydrocyclopenta[5,6]naphtho[1,2-f]indazol-1-yl 1,3-oxazole-4-carboxylate] | 1.3
C[C@]12Cc3cnn(-c4ccc(F)nc4)c3C=C1CC[C@@H]1[C@@H]2[C@@H](O)C[C@@]2(C)[C@H]1CC[C@]2(OC(=O)c1cocn1)C(=O)SCCO [Example 162, (1R,3aS,3bS,10aR,10bS,11S,12aS)-7-(6-Fluoropyridin-3-yl)-11-hydroxy-1-{[(2-hydroxyethyl)sulfanyl]carbonyl}-10a,12a-dimethyl-1,2,3,3a,3b,4,5,7,10,10a,10b,11,12,12a-tetradecahydrocyclopenta[5,6]naphtho[1,2-f]indazol-1-yl 1,3-oxazole-4-carboxylate] | 1.8
COCSC(=O)[C@@]1(OC(=O)c2cocn2)CC[C@H]2[C@@H]3CCC4=Cc5c(cnn5-c5ccc(F)nc5)C[C@]4(C)[C@H]3[C@@H](O)C[C@@]21C [Example 163, (1R,3aS,3bS,10aR,10bS,11S,12aS)-7-(6-Fluoropyridin-3-yl)-11-hydroxy-1-{[(methoxymethyl)sulfanyl]carbonyl}-10a,12a-dimethyl-1,2,3,3a,3b,4,5,7,10,10a,10b,11,12,12a-tetradecahydrocyclopenta[5,6]naphtho[1,2-f]indazol-1-yl 1,3-oxazole-4-carboxylate] | 1.7
C[C@]12Cc3cnn(-c4ccc(F)nc4)c3C=C1CC[C@@H]1[C@@H]2[C@@H](O)C[C@@]2(C)[C@H]1CC[C@]2(O)C(=O)SCC#N [Example 164, S-(Cyanomethyl)(1R,3aS,3bS,10aR,10bS,11S,12aS)-7-(6-fluoropyridin-3-yl)-1,11-dihydroxy-10a,12a-dimethyl-1,2,3,3a,3b,4,5,7,10,10a,10b,11,12,12a-tetradecahydrocyclopenta[5,6]naphtho[1,2-f]indazole-1-carbothioate] | 1.4
CSC(=O)[C@@]1(O)CC[C@H]2[C@@H]3CCC4=Cc5c(cnn5-c5ccc(F)nc5)C[C@]4(C)[C@H]3[C@@H](O)C[C@@]21C [Example 165, S-Methyl(1R,3aS,3bS,10aR,10bS,11S,12aS)-7-(6-fluoropyridin-3-yl)-1,11-dihydroxy-10a,12a-dimethyl-1,2,3,3a,3b,4,5,7,10,10a,10b,11,12,12a-tetradecahydrocyclopenta[5,6]naphtho[1,2-f]indazole-1-carbothioate] | 3.8
C[C@]12Cc3cnn(-c4ccc(F)nc4)c3C=C1CC[C@@H]1[C@@H]2[C@@H](O)C[C@@]2(C)[C@H]1CC[C@]2(OC(=O)c1ccco1)C(=O)SCC#N [Example 166, (1R,3aS,3bS,10aR,10bS,11S,12aS)-1-{[(Cyanomethyl)sulfanyl]carbonyl}-7-(6-fluoropyridin-3-yl)-11-hydroxy-10a,12a-dimethyl-1,2,3,3a,3b,4,5,7,10,10a,10b,11,12,12a-tetradecahydrocyclopenta[5,6]naphtho[1,2-f]indazol-1-yl furan-2-carboxylate] | 5.8
CSC(=O)[C@@]1(OC(=O)c2ccco2)CC[C@H]2[C@@H]3CCC4=Cc5c(cnn5-c5ccc(F)nc5)C[C@]4(C)[C@H]3[C@@H](O)C[C@@]21C [Example 167, (1R,3aS,3bS,10aR,10bS,11S,12aS)-7-(6-Fluoropyridin-3-yl)-11-hydroxy-10a,12a-dimethyl-1-[(methylsulfanyl)carbonyl]-1,2,3,3a,3b,4,5,7,10,10a,10b,11,12,12a-tetradecahydrocyclopenta[5,6]naphtho[1,2-f]indazol-1-yl furan-2-carboxylate] | 5.6
C[C@]12Cc3cnn(-c4ccc(F)nc4)c3C=C1CC[C@@H]1[C@@H]2[C@@H](O)C[C@@]2(C)[C@H]1CC[C@]2(OC(=O)c1ccco1)C(=O)SCCO [Example 168, (1R,3aS,3bS,10aR,10bS,11S,12aS)-7-(6-Fluoropyridin-3-yl)-11-hydroxy-1-{[(2-hydroxyethyl)sulfanyl]carbonyl}-10a,12a-dimethyl-1,2,3,3a,3b,4,5,7,10,10a,10b,11,12,12a-tetradecahydrocyclopenta[5,6]naphtho[1,2-f]indazol-1-yl furan-2-carboxylate] | 5.3
